test system: HT-1080 cells; experiment: HT-1080 cell viability assay (ferroptosis induced by RSL3, Cell Titer-Glo); assay type: cell-based; conditions: Homo sapiens, HT-1080, 20 h, ferroptosis inducer RSL3, 20 hours, ferroptosis inhibitory activity, Table 2
Method in brief: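 Cells seeded overnight, then co-treated with RSL3 and compound (3-fold, 10-point dilution, top 1.1 μM) for 20 hours. Viability by CellTiter-Glo luminescence, normalized to untreated controls; EC50 from sigmoidal non-linear regression.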

Row | SMILES | EC50 [nM]
1 | NCC1CCC(Nc2ccc3c(c2)CCCC3)CC1 (stereo not drawn) [Compound 286, N-(4-(aminomethyl)cyclohexyl)-5,6,7,8-tetrahydronaphthalen-2-amine] | 0.1 to 100
2 | CC1(C)CCC(c2ccc(NC3CC(O)C3)cc2)CC1 (single isomer, unassigned) [Compound 228A, 3-((4-(4,4-dimethylcyclohexyl)phenyl)amino)cyclobutan-1-ol] | 0.1 to 100
3 | CC(C)(C)c1ccc(NC2CCCCC2N)cc1 (stereo not drawn) [Compound 152, N1-(4-(tert-butyl)phenyl)cyclohexane-1,2-diamine] | 100 to 1000
4 | Cc1cc(N2CC(C)OC(C)C2)ccc1NC1CC2(CC(N)C2)C1 (stereo not drawn) [Compound 463, N2-(4-(2,6-dimethylmorpholino)-2-methylphenyl)spiro[3.3]heptane-2,6-diamine] | 0.1 to 100
5 | Cc1nc(N2CC(C)OC(C)C2)ccc1NC1C2CC3CC1CC(N)(C3)C2 (stereo not drawn) [Compound 474A, N^4-(6-(2.6-dimethylmorpholino)-2-methylpyridin-3-yl)adamantane-1,4-diamine] | 0.1 to 100
6 | CC(C)C1CCN(c2ncc(NC3C4CC5CC3CC(NC(N)=O)(C5)C4)cn2)CC1 (stereo not drawn) [Compound 408, 1-(4-((2-(4-isopropylpiperidin-1-yl)pyrimidin-5-yl)amino)adamantan-1-yl)urea] | 0.1 to 100
7 | CC(C)(C)c1ccc(NC2CCC(N)(CN)CC2)cc1 (stereo not drawn) [Compound 270, 1-(aminomethyl)-N4-(4-(tert-butyl)phenyl)cyclohexane-1,4-diamine] | 100 to 1000
8 | CC1(C)CCC(c2ccc(NC3CC(CN)C3)cc2)CC1 (stereo not drawn) [Compound 84, N-(3-(aminomethyl)cyclobutyl)-4-(4,4-dimethylcyclohexyl)aniline] | 0.1 to 100
9 | Cc1cc(NC[C@H]2CC[C@H](N)CC2)cc(C)c1C [Compound 314, N-(((1r,4r)-4-aminocyclohexyl)methyl)-3,4,5-trimethylaniline] | 0.1 to 100
10 | Cc1cc(C(C)(C)C)ccc1NC1CCC(N)CC1 (stereo not drawn) [Compound 184, N1-(4-(tert-butyl)-2-methylphenyl)cyclohexane-1,4-diamine] | 100 to 1000
11 | CC1(C)CCC(c2ccc(NC3CCC(NC(N)=O)CC3)cc2)CC1 (stereo not drawn) [Compound 248, 1-(4-((4-(4,4-dimethylcyclohexyl)phenyl)amino)cyclohexyl)urea] | 100 to 1000
12 | CC(C)(C)c1ccc(NC2CCC(N)(C(N)=O)CC2)cc1 (stereo not drawn) [Compound 212, 1-amino-4-((4-(tert-butyl)phenyl)amino)cyclohexane-1-carboxamide] | 1000 to 10000
13 | NC1CCCCC1Nc1ccc(N2CCC(C(F)(F)F)CC2)cc1 (stereo not drawn) [Compound 402, N1-(4-(4-(trifluoromethyl)piperidin-1-yl)phenyl)cyclohexane-1,2-diamine] | 0.1 to 100
14 | Cc1cc(N2C[C@@H](C)O[C@@H](C)C2)ncc1NC1CC2(CC(N)C2)C1 (stereo partly drawn) [Compound 487, N2-(6-((2S,6R)-2,6-dimethylmorpholino)-4-methylpyridin-3-yl)spiro[3.3]heptane-2,6-diamine] | 100 to 1000
15 | CCCC1CCN(c2ncc(NC3CCC(N)CC3)cn2)CC1 (stereo not drawn) [Compound 29, N1-(2-(4-propylpiperidin-1-yl)pyrimidin-5-yl)cyclohexane-1,4-diamine] | 0.1 to 100
16 | CCCC1CN(c2ncc(NC3CCC(N)CC3)cn2)C1 (stereo not drawn) [Compound 46, N1-(2-(3-propylazetidin-1-yl)pyrimidin-5-yl)cyclohexane-1,4-diamine] | 100 to 1000
17 | CC1CN(c2ccc(NC[C@H]3CC[C@H](N)CC3)c(C#N)c2)CC(C)O1 (stereo partly drawn) [Compound 484, 2-((((1r,4r)-4-aminocyclohexyl)methyl)amino)-5-(2,6-dimethylmorpholino) benzonitrile] | 1000 to 10000
18 | Cc1nc(N2CC(C)N(C(=O)C(F)(F)F)C(C)C2)ccc1NC1CC2(CC(N)C2)C1 (stereo not drawn) [Compound 554, 1-(4-(5-((6-aminospiro[3.3]heptan-2-yl)amino)-6-methylpyridin-2-yl)-2,6-dimethylpiperazin-1-yl)-2,2,2-trifluoroethan-1-one] | 0.1 to 100

Row | SMILES | EC50 [nM]
19 | NC1CCC(Nc2cnc(N3CCC(C(F)(F)F)CC3)nc2)CC1 (stereo not drawn) [Compound 42, N1-(2-(4-(trifluoromethyl)piperidin-1-yl)pyrimidin-5-yl)cyclohexane-1,4-diamine] | 0.1 to 100
20 | Cc1cc(NC2CC3(CC(N)C3)C2)c(C)nc1N1CC(C)OC(C)C1 (stereo not drawn) [Compound 476, N2-(6-(2,6-dimethylmorpholino)-2,5-dimethylpyridin-3-yl)spiro[3.3]heptane-2,6-diamine] | 0.1 to 100
21 | CC(C)c1ccc(NC2CCC(N)CC2)cc1 (stereo not drawn) [Compound 127, N1-(4-isopropylphenyl)cyclohexane-1,4-diamine] | 100 to 1000
22 | CC(C)c1ccc(NC2CCC(CN)CC2)cc1 (stereo not drawn) [Compound 283, N-(4-(aminomethyl)cyclohexyl)-4-isopropylaniline] | 0.1 to 100
23 | O=C(O)C1CCC(Nc2ccc(N3CCC(C(F)(F)F)CC3)cc2)CC1 (stereo not drawn) [Compound 9, 4-((4-(4-(trifluoromethyl)piperidin-1-yl)phenyl)amino)cyclohexane-1-carboxylic acid] | 1000 to 10000
24 | NC1CCC(Nc2ccc(C3CCCCC3)cc2)CC1 (stereo not drawn) [Compound 122, N1-(4-cyclohexylphenyl)cyclohexane-1,4-diamine] | 0.1 to 100
25 | CC(C)(C)c1ccc(NC2CC3CC(N)CC3C2)cc1 (stereo not drawn) [Compound 277, N2-(4-(tert-butyl)phenyl) octahydropentalene-2,5-diamine] | 0.1 to 100
26 | CC[C@@H]1CN(c2ccc(NC3CC4(CC(N)C4)C3)c(C)n2)C[C@H](CC)O1 (stereo partly drawn) [Compound 549] | 0.1 to 100
27 | NC1CCC(Nc2cccc3c2CCO3)CC1 (stereo not drawn) [Compound 164, N1-(2,3-dihydrobenzofuran-4-yl)cyclohexane-1,4-diamine] | 1000 to 10000
28 | NC1CCC(Nc2ccc3ccccc3c2)CC1 (stereo not drawn) [Compound 221, N1-(naphthalen-2-yl)cyclohexane-1,4-diamine] | 0.1 to 100
29 | CC1(C)CCC(c2ccc(NC3CCC(NC(=O)C4CNCCN4)CC3)cc2)CC1 (stereo not drawn) [Compound 274, N-(4-((4-(4,4-dimethylcyclohexyl)phenyl)amino)cyclohexyl) piperazine-2-carboxamide] | 0.1 to 100
30 | CC(Nc1ccc(C(C)(C)C)cc1)[C@H]1CC[C@H](N)CC1 (stereo partly drawn) [Compound 350, N—((S)-1-((1r,4S)-4-aminocyclohexyl)ethyl)-4-(tert-butyl)aniline] | 0.1 to 100
31 | Cc1ccc(NC2CCC(N)CC2)cc1 (stereo not drawn) [Compound 128, N1-(p-tolyl)cyclohexane-1,4-diamine] | 100 to 1000
32 | CC(C)(C)c1ccc(NC2CCC(NC(=O)C3CNC(=O)C3)CC2)cc1 (single isomer, unassigned) [Compound 114A, N-(4-((4-(tert-butyl)phenyl)amino)cyclohexyl)-5-oxopyrrolidine-3-carboxamide] | 100 to 1000
33 | CC(C)(C)c1ccc(NC2CCC(NC(N)=O)CC2)cc1 (stereo not drawn) [Compound 266A, 1-(4-((4-(tert-butyl)phenyl)amino)cyclohexyl)urea] | 100 to 1000
34 | FC(F)(F)C1CCN(c2ccc(NC3CCOCC3)cc2)CC1 [Compound 17, N-(4-(4-(trifluoromethyl)piperidin-1-yl)phenyl)tetrahydro-2H-pyran-4-amine] | 0.1 to 100
35 | CC(C)(C)c1ccc(NC2CCC(N)CC2)c(Cl)c1 (single isomer, unassigned) [Compound 183A, N1-(4-(tert-butyl)-2-chlorophenyl)cyclohexane-1,4-diamine] | 1000 to 10000
36 | [2H]C1([2H])CC(N)CC([2H])([2H])C1([2H])Nc1ccc(C(C)(C)C)cc1 (stereo not drawn) [Compound 347, N1-(4-(tert-butyl)phenyl)cyclohexane-1,2,2,6,6-d5-1,4-diamine] | 0.1 to 100

same assay, conditions: Homo sapiens, HT-1080, 20 h, ferroptosis inducer RSL3, 20 hours, ferroptosis inhibitory activity, Table 3

Row | SMILES | EC50 [nM]
37 | CN(C)c1ccc2cc(NC3CC4(CC(N)C4)C3)ccc2c1 (stereo not drawn) [Compound 601, N2-(6-aminospiro[3.3]heptan-2-yl)-N^6,N^6-dimethylnaphthalene-2,6-diamine] | 0.1 to 100
38 | Cc1nc(N2CCC3(CCOCC3)CC2)ccc1NC[C@H]1CC[C@H](N)CC1 [Compound 582, N-(((1r,4r)-4-aminocyclohexyl)methyl)-2-methyl-6-(3-oxa-9-azaspiro [5.5]undecan-9-yl)pyridin-3-amine] | 0.1 to 100
39 | COCCN(CC(F)(F)F)c1ccc(NC2CC3(CC(N)C3)C2)c(C)n1 (stereo not drawn) [Compound 660, N^5-(6-aminospiro[3.3]heptan-2-yl)-N^2-(2-methoxyethyl)-6-methyl-N2-(2,2,2-trifluoroethyl)pyridine-2,5-diamine] | 0.1 to 100
40 | CC[C@@H]1CN(c2ccc(NC3CC4(C3)CC(C(N)=O)C4)c(C)n2)C[C@H](CC)O1 (stereo partly drawn) [Compound 575, 6-((6-((2S,6R)-2,6-diethylmorpholino)-2-methylpyridin-3-yl)amino)spiro[3.3]heptane-2-carboxamide] | 0.1 to 100
41 | Cc1nc(N2CC[Si](C)(C)CC2)ccc1NC1CC2(CC(O)C2)C1 (stereo not drawn) [Compound 625, 6-((6-(4,4-dimethyl-1,4-azasilinan-1-yl)-2-methylpyridin-3-yl)amino)spiro[3.3]heptan-2-ol] | 0.1 to 100
42 | Cc1nc(N2CC[Si](C)(C)CC2)ccc1NC1CC2(C1)CC(C(N)=O)C2 (stereo not drawn) [Compound 615, 6-((6-(4,4-dimethyl-1,4-azasilinan-1-yl)-2-methylpyridin-3-yl)amino)spiro[3.3]heptane-2-carboxamide] | 0.1 to 100

same assay, conditions: Homo sapiens, ferroptosis inducer RSL3, 20 hours, ferroptosis inhibitory activity, Table 2

Row | SMILES | EC50 [nM]
43 | CCCCN(CCCC)CCNc1ccc(C2CCCCC2)cc1 [Compound 173, N1,N1-dibutyl-N2-(4-cyclohexylphenyl)ethane-1,2-diamine] | 100 to 1000

same assay, conditions: ferroptosis inducer RSL3, 20 hours, ferroptosis inhibitory activity, Table 2

Row | SMILES | EC50 [nM]
44 | NC1CCC(Nc2ccc(N3CCCCC3CO)cc2)CC1 (single isomer, unassigned) [Compound 417A, (1-(4-((4-aminocyclohexyl)amino)phenyl)piperidin-2-yl)methanol] | 0.1 to 100
45 | CC1(C)CCC(c2ccc(NC3CCC(C(N)=O)CC3)cc2)CC1 (single isomer, unassigned) [Compound 159A, 4-((4-(4,4-dimethylcyclohexyl)phenyl)amino)cyclohexane-1-carboxamide] | 0.1 to 100
